From the supplement of paper PMC8372320 come the findings set out here.

SMILES strings stand for the structures.
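Further: aromatic molecules in triethylamine/methanol/water with Pt photoreduced in situ, irradiated 3 h under a 1 sun AM 1.5G solar simulator (350–1000 nm), H2 quantified by headspace gas chromatography; listed molecule itself used as the photocatalyst at 5 mg per vial.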

A short description of the data set: photocatalytic hydrogen evolution rate (per 5 mg catalyst); higher = more photocatalytic H2 evolution; extreme values may be limits of the assay. The note with it: catalyst mass (mg): 5; Pt cocatalyst (wt%): 3; sacrificial medium: triethylamine/methanol/water 1:1:1.
For `N#Cc1cc(Br)cs1`, the “photocatalytic hydrogen evolution rate” value stood at 0 µmol/h. On to `COc1cc(Br)ccc1C=O`, for which the “photocatalytic hydrogen evolution rate” value stood at 12.3 µmol/h.

For `Brc1c2c(c(Br)c3nsnc13)N=S=N2`, the “photocatalytic hydrogen evolution rate” value amounted to 0 µmol/h. Then `O=C(O)c1cc(C(=O)O)cc(-c2ccc(-c3cc(C(=O)O)cc(C(=O)O)c3)cc2)c1`, with 0.0522 µmol/h; and `Brc1cc(Br)c(Br)cc1Br`, with 0 µmol/h; and `N#Cc1ccc(-c2ccccc2)cc1`, with 0 µmol/h. For `N#Cc1ccc(Cc2ccc(C#N)cc2)cc1`, the “photocatalytic hydrogen evolution rate” value amounted to 0 µmol/h.

For the compound `OCc1ccc(-c2ccc(CO)cc2)cc1`, the “photocatalytic hydrogen evolution rate” value is 0.00977 µmol/h. In the case of `c1ccc(N=Nc2ccccc2)cc1` it was 0 µmol/h. With `COc1cc(C=O)cc(OC)c1`, the “photocatalytic hydrogen evolution rate” value stood at 5.78 µmol/h. As for `N#Cc1cccnc1C#N`, the “photocatalytic hydrogen evolution rate” value was determined as 0 µmol/h.

As for `N#Cc1c(O)[nH]c(=O)c(C#N)c1-c1ccccc1`, the “photocatalytic hydrogen evolution rate” value turned out to be 0 µmol/h. Regarding `O=C1NC(=O)c2cccc3cccc1c23`, the “photocatalytic hydrogen evolution rate” value came to 24.5 µmol/h.

As to `Oc1cccc2cccnc12`, the “photocatalytic hydrogen evolution rate” value came out at 0 µmol/h. In the case of `O=C1C(Cl)=C(Cl)C(=O)C(Cl)=C1Cl` it was 0 µmol/h; in that of `Brc1c2ccccc2c(-c2c3ccccc3c(Br)c3ccccc23)c2ccccc12`, 1.44 µmol/h; in that of `O=Cc1cccc2cccnc12`, 1.45 µmol/h. Turning to `N#Cc1cc(N)cc(Cl)c1`, the “photocatalytic hydrogen evolution rate” value is 0.000715 µmol/h. For the compound `O=C1C(c2ccccc2)=C(c2ccccc2)C(c2ccccc2)=C1c1ccccc1`, the “photocatalytic hydrogen evolution rate” value came to 0.0996 µmol/h.

On to `Cc1ccc(C(=O)c2ccccc2)cc1`, for which the “photocatalytic hydrogen evolution rate” value was determined as 3.44 µmol/h.

`Cc1ccc(N(c2ccccc2)c2ccccc2)cc1`: the “photocatalytic hydrogen evolution rate” value was 0 µmol/h. For the compound `O=Cc1ccc(-c2cncnc2)cc1`, the “photocatalytic hydrogen evolution rate” value worked out at 2.58 µmol/h. For `O=Cc1cc(O)c(C=O)cc1O`, the “photocatalytic hydrogen evolution rate” value came out at 0 µmol/h.

Turning to `N#Cc1c(F)c(F)c(F)c(C#N)c1F`, the “photocatalytic hydrogen evolution rate” value was 0.386 µmol/h.

As for `BrCc1ccc(CBr)cc1`, the “photocatalytic hydrogen evolution rate” value was 0 µmol/h. Then `c1ccc(C(c2ccccc2)c2ccccc2)cc1`, with 0 µmol/h; and `Fc1c(F)c(-c2c(F)c(F)c(Br)c(F)c2F)c(F)c(F)c1Br`, with 0 µmol/h. Regarding `Cc1cc(C#N)c(C)cc1C#N`, the “photocatalytic hydrogen evolution rate” value turned out to be 0 µmol/h.

Consider `CC(C)(O)c1ccc(C(C)(C)O)cc1`, for which the “photocatalytic hydrogen evolution rate” value was found to be 0.00118 µmol/h. `O=C1c2cc(Br)ccc2-c2ccc(Br)cc21`: the “photocatalytic hydrogen evolution rate” value is 0.214 µmol/h. Then `CCn1c2ccc(Br)cc2c2cc(Br)ccc21`, with 1.25 µmol/h. Then `Cc1c(C)c(C)c(C=O)c(C)c1C`, with 0.844 µmol/h; and `Brc1cc(Br)cc(-c2cc(Br)cc(Br)c2)c1`, with 0.0514 µmol/h; and `N#Cc1cncc(-c2cncc(C#N)c2)c1`, with 0 µmol/h. In the case of `COc1ccc(Nc2ccc(OC)cc2)cc1` it was 0.055 µmol/h; in that of `Cc1ccc(N(c2ccc(C)cc2)c2ccc(C=O)cc2)cc1`, 0.0671 µmol/h. In the case of `Nc1c(F)c(F)c(-c2c(F)c(F)c(N)c(F)c2F)c(F)c1F`, the “photocatalytic hydrogen evolution rate” value came to 0 µmol/h. As for `C=Cc1ccc2c(=C(C#N)C#N)c3ccccc3c(=C(C#N)C#N)c2c1`, the “photocatalytic hydrogen evolution rate” value amounted to 0 µmol/h. Then `c1ccc2c(c1)CCc1ccccc1N2`, with 0 µmol/h; and `N#Cc1ccc(C#N)c(OC(F)(F)F)c1`, with 0.153 µmol/h; and `c1ccc(-c2c3ccccc3c(-c3ccccc3)c3c(-c4ccccc4)c4ccccc4c(-c4ccccc4)c23)cc1`, with 0.0539 µmol/h. Take `N#Cc1cnc(N)c(C#N)c1`: the “photocatalytic hydrogen evolution rate” value was 0.468 µmol/h. As to `COC(=O)c1cccc2cc3cccc(C(=O)OC)c3cc12`, the “photocatalytic hydrogen evolution rate” value was 0.0378 µmol/h. Turning to `Cc1cc(C#N)cnc1Br`, the “photocatalytic hydrogen evolution rate” value turned out to be 0 µmol/h. Consider `COC(=O)c1ccnc(-c2cc(C(=O)OC)ccn2)c1`, for which the “photocatalytic hydrogen evolution rate” value is 0 µmol/h. Then `Brc1ccc(-c2ccc(Br)s2)s1`, with 0 µmol/h; and `O=C(C(=O)c1ccccc1)c1ccccc1`, with 0.736 µmol/h; and `O=C(O)c1cc(C(=O)O)cc(-c2cc(C(=O)O)cc(C(=O)O)c2)c1`, with 0 µmol/h. In the case of `Cn1cc(Br)nc(Br)c1=O` it was 0 µmol/h. As to `N#Cc1cccc(C#N)n1`, the “photocatalytic hydrogen evolution rate” value stood at 0 µmol/h.

In the case of `c1ccc2c(c1)Nc1ccccc1O2`, the “photocatalytic hydrogen evolution rate” value is 0 µmol/h. With `O=Cc1ccc(O)c(F)c1`, the “photocatalytic hydrogen evolution rate” value stood at 0.0382 µmol/h. Then `N#Cc1cc(Br)cc(Br)c1O`, with 0.31 µmol/h; and `c1ccc(Nc2ccc(Nc3ccccc3)cc2)cc1`, with 0 µmol/h; and `COC(=O)c1cccc(C(=O)OC)n1`, with 0.0266 µmol/h.

As to `Cc1ccc(C#N)cc1N`, the “photocatalytic hydrogen evolution rate” value is 0 µmol/h. `CC1(C)CC2(CC(C)(C)c3cc(O)c(O)cc32)c2cc(O)c(O)cc21`: the “photocatalytic hydrogen evolution rate” value is 0 µmol/h. In the case of `O=[N+]([O-])c1cc([N+](=O)[O-])c(F)cc1F` it was 0 µmol/h. Then `Nc1c(F)c(F)c(N)c(F)c1F`, with 0 µmol/h. In the case of `Brc1ccc2c(c1)sc1cc(Br)ccc12` it was 0 µmol/h.

As to `CCCCCCCCCCCCCCCCCCn1c(=O)c2ccc3sc4ccccc4c4ccc(c1=O)c2c34`, the “photocatalytic hydrogen evolution rate” value is 12.3 µmol/h.

With `O=c1c2ccccc2c(=O)c2cc3c(=O)c4ccccc4c(=O)c3cc12`, the “photocatalytic hydrogen evolution rate” value was found to be 0 µmol/h. For `N#Cc1cccc(-c2cccc(C#N)n2)n1`, the “photocatalytic hydrogen evolution rate” value was 0.0301 µmol/h. Then `CCc1c(CBr)c(CC)c(CBr)c(CC)c1CBr`, with 0 µmol/h; and `Brc1ccc(N(c2ccc(Br)cc2)c2ccc(Br)cc2)cc1`, with 0.922 µmol/h. For `N#Cc1cc(F)c(F)cc1F`, the “photocatalytic hydrogen evolution rate” value amounted to 0.0582 µmol/h. In the case of `O=C(O)c1ccccc1[N+](=O)[O-]`, the “photocatalytic hydrogen evolution rate” value amounted to 0 µmol/h.

For the compound `O=C1c2ccccc2-c2ccc3c4ccc5c6c(ccc(c7ccc1c2c73)c64)C(=O)c1ccccc1-5`, the “photocatalytic hydrogen evolution rate” value turned out to be 0.407 µmol/h. Regarding `O=Cc1ccc(B(O)O)cc1`, the “photocatalytic hydrogen evolution rate” value came to 0.0401 µmol/h. Turning to `O=Cc1cccc(-c2ccccc2)c1`, the “photocatalytic hydrogen evolution rate” value amounted to 3.14 µmol/h. With `Brc1ccc2[nH]c3ccc(Br)cc3c2c1`, the “photocatalytic hydrogen evolution rate” value is 0 µmol/h. As to `Brc1cncc(Br)c1`, the “photocatalytic hydrogen evolution rate” value came to 0 µmol/h.

With `O=Cc1ccc(C(=O)O)cc1`, the “photocatalytic hydrogen evolution rate” value was found to be 2.34 µmol/h. For the compound `N#Cc1cc(Br)ccn1`, the “photocatalytic hydrogen evolution rate” value turned out to be 0 µmol/h. With `c1ccc(-c2ccc(-c3nc(-c4ccc(-c5ccccc5)cc4)nc(-c4ccc(-c5ccccc5)cc4)n3)cc2)cc1`, the “photocatalytic hydrogen evolution rate” value amounted to 0.103 µmol/h. With `O=C1Cc2cc(Br)cc(Br)c2N1`, the “photocatalytic hydrogen evolution rate” value amounted to 0 µmol/h. For `c1ccc2[nH]ccc2c1`, the “photocatalytic hydrogen evolution rate” value stood at 0 µmol/h. On to `Brc1ccnc(-c2cc(Br)ccn2)c1`, for which the “photocatalytic hydrogen evolution rate” value amounted to 0 µmol/h.

Turning to `OB(O)c1cc(Br)cc(Br)c1`, the “photocatalytic hydrogen evolution rate” value was determined as 0 µmol/h. Regarding `N#Cc1ccc(C=O)nc1`, the “photocatalytic hydrogen evolution rate” value worked out at 0.139 µmol/h. In the case of `N#Cc1nc2c3nc(C#N)c(C#N)nc3c3nc(C#N)c(C#N)nc3c2nc1C#N`, the “photocatalytic hydrogen evolution rate” value turned out to be 0 µmol/h. With `O=Cc1ccc2ccccc2c1`, the “photocatalytic hydrogen evolution rate” value worked out at 9.93 µmol/h. For the compound `N#Cc1ccc(F)c(N)c1`, the “photocatalytic hydrogen evolution rate” value came out at 0 µmol/h. For `Brc1cc2cc3sc(Br)cc3cc2s1`, the “photocatalytic hydrogen evolution rate” value is 0 µmol/h. Turning to `O=Cc1ccc(N2CCCCC2)cc1`, the “photocatalytic hydrogen evolution rate” value was determined as 0.431 µmol/h. On to `CC(O)c1ccc2ccccc2c1` (stereo not given), for which the “photocatalytic hydrogen evolution rate” value amounted to 0 µmol/h.

Turning to `N#Cc1ccc(Br)nc1`, the “photocatalytic hydrogen evolution rate” value came to 0 µmol/h. `O=Cc1ccc(-c2ccccc2)cc1`: the “photocatalytic hydrogen evolution rate” value was 4.67 µmol/h. For the compound `CC(C)(C)c1cc(C=O)cc(C(C)(C)C)c1O`, the “photocatalytic hydrogen evolution rate” value came out at 0 µmol/h. With `BrCc1ccc(-c2ccc(CBr)cc2)cc1`, the “photocatalytic hydrogen evolution rate” value was 0 µmol/h. Take `O=C1C=CC(=O)c2c(O)cccc21`: the “photocatalytic hydrogen evolution rate” value was 0 µmol/h. For the compound `O=C1c2ccccc2Cc2ccccc21`, the “photocatalytic hydrogen evolution rate” value is 0 µmol/h. Consider `O=Cc1ccc(N(c2ccc(C=O)cc2)c2ccc(C=O)cc2)cc1`, for which the “photocatalytic hydrogen evolution rate” value came to 1.46 µmol/h. Take `c1cc2ccc3ccc4ccc5ccc6ccc1c1c2c3c4c5c61`: the “photocatalytic hydrogen evolution rate” value was determined as 0 µmol/h.

With `O=Cc1ccc(/C=C/c2ccccc2)cc1`, the “photocatalytic hydrogen evolution rate” value was found to be 0.017 µmol/h. Turning to `N#Cc1ccc(-c2cccc(N)c2)cc1`, the “photocatalytic hydrogen evolution rate” value came out at 0 µmol/h. For the compound `O=C(O)c1ccc(C#Cc2cc(C#Cc3ccc(C(=O)O)cc3)cc(C#Cc3ccc(C(=O)O)cc3)c2)cc1`, the “photocatalytic hydrogen evolution rate” value worked out at 0 µmol/h. Regarding `Brc1cccc(-c2cccc(Br)n2)n1`, the “photocatalytic hydrogen evolution rate” value came out at 0 µmol/h. Consider `CC1(C)OB(c2cc3ccc4cc(B5OC(C)(C)C(C)(C)O5)cc5ccc(c2)c3c45)OC1(C)C`, for which the “photocatalytic hydrogen evolution rate” value was 0.0847 µmol/h. `COC(=O)c1ccc(-c2ccc(C(=O)OC)cc2)cc1`: the “photocatalytic hydrogen evolution rate” value was 0.00435 µmol/h. In the case of `Brc1cnc2c(ccc3cc(Br)cnc32)c1` it was 0.655 µmol/h. As for `Nc1ccc(N)c2c1C(=O)c1c(N)ccc(N)c1C2=O`, the “photocatalytic hydrogen evolution rate” value amounted to 0 µmol/h. Turning to `c1ccc(N(c2ccccc2)c2ccc(N(c3ccccc3)c3ccccc3)cc2)cc1`, the “photocatalytic hydrogen evolution rate” value amounted to 0 µmol/h. Regarding `Cn1c2ccc(Br)cc2c(=O)c2cc(Br)ccc21`, the “photocatalytic hydrogen evolution rate” value was 9.21 µmol/h. On to `CC(=O)c1ccc(N)cc1`, for which the “photocatalytic hydrogen evolution rate” value turned out to be 0.229 µmol/h.
